# According to ChEMBL document CHEMBL3885861, “Open TG-GATES”:
# Organism: Rattus norvegicus
# Test: Open TG-GATES - Regimen: Daily Repeat
# Assay type: toxicity, organism-based, Sprague-Dawley
# Design: regimen Daily Repeat, gender Male, age 6 weeks
# Details: in vivo, po, 300 mg/kg, route gavage, dose level High; for APTT / Bas / Eos / Fbg / Hb / Ht / Lym / MCH / MCHC / MCV / Mono / Neu / PT / Plat / RBC / Ret / WBC: tissue Blood; for KIDNEY_L / KIDNEY_R / KIDNEY_TOTAL: tissue Kidney; for LIVER: tissue Liver; for ALP / ALT / AST / BUN / CRE / DBIL / GLC / IP / K / LDH / Na / PL / RALB / TBIL / TC / TG / TP / gamma-GTP: tissue Plasma
compound,measurement,setting,value
Clc1ccccc1CN1CCc2sccc2C1 [TICLOPIDINE],TERMINAL_BW,"72 h, time 3 day",211.5 g
same,APTT,"72 h, time 3 day",25.4 s
same,Bas,"72 h, time 3 day",0.6%
same,Eos,"72 h, time 3 day",0.8%
same,Fbg,"72 h, time 3 day",212.6 mg/dL
same,Hb,"72 h, time 3 day",13.7 g/dL
same,Ht,"72 h, time 3 day",38.5%
same,Lym,"72 h, time 3 day",84%
same,MCH,"72 h, time 3 day",21.4 pg
same,MCHC,"72 h, time 3 day",35.5%
same,MCV,"72 h, time 3 day",60.1 fL
same,Mono,"72 h, time 3 day",2.6%
same,Neu,"72 h, time 3 day",11.2%
same,PT,"72 h, time 3 day",12.4 s
same,Plat,"72 h, time 3 day",149.4 x10_4/uL
same,RBC,"72 h, time 3 day",640.4 x10_4/ul
same,Ret,"72 h, time 3 day",3.5%
same,WBC,"72 h, time 3 day",84 x10_2/uL
same,KIDNEY_L,"72 h, time 3 day",1.1 g
same,KIDNEY_R,"72 h, time 3 day",1 g
same,KIDNEY_TOTAL,"72 h, time 3 day",2.1 g
same,LIVER,"72 h, time 3 day",13 g
same,ALP,"72 h, time 3 day",1140 IU/L
same,ALT,"72 h, time 3 day",40.2 IU/L
same,AST,"72 h, time 3 day",68.6 IU/L
same,BUN,"72 h, time 3 day",13.8 mg/dL
same,CRE,"72 h, time 3 day",0.4 mg/dL
same,DBIL,"72 h, time 3 day",0.084 mg/dL
same,GLC,"72 h, time 3 day",175.4 mg/dL
same,IP,"72 h, time 3 day",7 mg/dL
same,K,"72 h, time 3 day",4 meq/L
same,LDH,"72 h, time 3 day",134.6 IU/L
same,Na,"72 h, time 3 day",142 meq/L
same,PL,"72 h, time 3 day",163.2 mg/dL
same,RALB,"72 h, time 3 day",3.2 g/dL
same,TBIL,"72 h, time 3 day",0.1 mg/dL
same,TC,"72 h, time 3 day",93 mg/dL
same,TG,"72 h, time 3 day",55.6 mg/dL
same,TP,"72 h, time 3 day",5.2 g/dL
same,gamma-GTP,"72 h, time 3 day",1.6 IU/L
same,TERMINAL_BW,"[…], time 7 day",243.3 g
same,TERMINAL_BW,"[…], time 14 day",287.4 g
same,TERMINAL_BW,"[…], time 28 day",349.5 g
same,APTT,"[…], time 7 day",25.4 s
same,Bas,"[…], time 7 day",0.4%
same,Eos,"[…], time 7 day",1%
same,Fbg,"[…], time 7 day",249.2 mg/dL
same,Hb,"[…], time 7 day",13.3 g/dL
same,Ht,"[…], time 7 day",37.1%
same,Lym,"[…], time 7 day",73.6%
same,MCH,"[…], time 7 day",20.6 pg
same,MCHC,"[…], time 7 day",35.8%
same,MCV,"[…], time 7 day",57.3 fL
same,Mono,"[…], time 7 day",3%
same,Neu,"[…], time 7 day",20.8%
same,PT,"[…], time 7 day",12.5 s
same,Plat,"[…], time 7 day",141.7 x10_4/uL
same,RBC,"[…], time 7 day",646.4 x10_4/ul
same,Ret,"[…], time 7 day",4.9%
same,WBC,"[…], time 7 day",116.7 x10_2/uL
same,APTT,"[…], time 14 day",27.3 s
same,Bas,"[…], time 14 day",0.6%
same,Eos,"[…], time 14 day",1%
same,Fbg,"[…], time 14 day",229.6 mg/dL
same,Hb,"[…], time 14 day",14.1 g/dL
same,Ht,"[…], time 14 day",39.4%
same,Lym,"[…], time 14 day",82.4%
same,MCH,"[…], time 14 day",20.9 pg
same,MCHC,"[…], time 14 day",35.9%
same,MCV,"[…], time 14 day",58.1 fL
same,Mono,"[…], time 14 day",2.2%
same,Neu,"[…], time 14 day",12.8%
same,PT,"[…], time 14 day",12.5 s
same,Plat,"[…], time 14 day",123 x10_4/uL
same,RBC,"[…], time 14 day",679 x10_4/ul
same,Ret,"[…], time 14 day",4.4%
same,WBC,"[…], time 14 day",118.3 x10_2/uL
same,APTT,"[…], time 28 day",22.4 s
same,Bas,"[…], time 28 day",0.8%
same,Eos,"[…], time 28 day",1.4%
same,Fbg,"[…], time 28 day",261.8 mg/dL
same,Hb,"[…], time 28 day",14.8 g/dL
same,Ht,"[…], time 28 day",39.8%
same,Lym,"[…], time 28 day",77.4%
same,MCH,"[…], time 28 day",19.7 pg
same,MCHC,"[…], time 28 day",37.1%
same,MCV,"[…], time 28 day",53.3 fL
same,Mono,"[…], time 28 day",2.4%
same,Neu,"[…], time 28 day",17.6%
same,PT,"[…], time 28 day",11.8 s
same,Plat,"[…], time 28 day",108.6 x10_4/uL
same,RBC,"[…], time 28 day",747.8 x10_4/ul
same,Ret,"[…], time 28 day",3.2%
same,WBC,"[…], time 28 day",125.4 x10_2/uL
same,KIDNEY_L,"[…], time 7 day",1.1 g
same,KIDNEY_R,"[…], time 7 day",1.1 g
same,KIDNEY_TOTAL,"[…], time 7 day",2.2 g
same,KIDNEY_L,"[…], time 14 day",1.3 g
same,KIDNEY_R,"[…], time 14 day",1.3 g
same,KIDNEY_TOTAL,"[…], time 14 day",2.6 g
same,KIDNEY_L,"[…], time 28 day",1.5 g
same,KIDNEY_R,"[…], time 28 day",1.5 g
same,KIDNEY_TOTAL,"[…], time 28 day",3.1 g
same,LIVER,"[…], time 7 day",14.1 g
same,LIVER,"[…], time 14 day",16.6 g
same,LIVER,"[…], time 28 day",20 g
same,ALP,"[…], time 7 day",768.8 IU/L
same,ALT,"[…], time 7 day",49.8 IU/L
same,AST,"[…], time 7 day",78 IU/L
same,BUN,"[…], time 7 day",15.8 mg/dL
same,CRE,"[…], time 7 day",0.4 mg/dL
same,DBIL,"[…], time 7 day",0.084 mg/dL
same,GLC,"[…], time 7 day",172.6 mg/dL
same,IP,"[…], time 7 day",7.3 mg/dL
same,K,"[…], time 7 day",4.1 meq/L
same,LDH,"[…], time 7 day",186 IU/L
same,Na,"[…], time 7 day",142.4 meq/L
same,PL,"[…], time 7 day",222.6 mg/dL
same,RALB,"[…], time 7 day",3.5 g/dL
same,TBIL,"[…], time 7 day",0.1 mg/dL
same,TC,"[…], time 7 day",126.8 mg/dL
same,TG,"[…], time 7 day",67.4 mg/dL
same,TP,"[…], time 7 day",6 g/dL
same,gamma-GTP,"[…], time 7 day",1.8 IU/L
same,ALP,"[…], time 14 day",721.2 IU/L
same,ALT,"[…], time 14 day",35.2 IU/L
same,AST,"[…], time 14 day",62.4 IU/L
same,BUN,"[…], time 14 day",15.2 mg/dL
same,CRE,"[…], time 14 day",0.4 mg/dL
same,DBIL,"[…], time 14 day",0.08 mg/dL
same,GLC,"[…], time 14 day",201.4 mg/dL
same,IP,"[…], time 14 day",8.4 mg/dL
same,K,"[…], time 14 day",3.9 meq/L
same,LDH,"[…], time 14 day",141 IU/L
same,Na,"[…], time 14 day",142.2 meq/L
same,PL,"[…], time 14 day",182.8 mg/dL
same,RALB,"[…], time 14 day",3.4 g/dL
same,TBIL,"[…], time 14 day",0.1 mg/dL
same,TC,"[…], time 14 day",99.2 mg/dL
same,TG,"[…], time 14 day",53.6 mg/dL
same,TP,"[…], time 14 day",6 g/dL
same,gamma-GTP,"[…], time 14 day",2.4 IU/L
same,ALP,"[…], time 28 day",578.4 IU/L
same,ALT,"[…], time 28 day",47 IU/L
same,AST,"[…], time 28 day",67.6 IU/L
same,BUN,"[…], time 28 day",16.8 mg/dL
same,CRE,"[…], time 28 day",0.5 mg/dL
same,DBIL,"[…], time 28 day",0.086 mg/dL
same,GLC,"[…], time 28 day",197 mg/dL
same,IP,"[…], time 28 day",7.9 mg/dL
same,K,"[…], time 28 day",4 meq/L
same,LDH,"[…], time 28 day",196.6 IU/L
same,Na,"[…], time 28 day",141.6 meq/L
same,PL,"[…], time 28 day",206 mg/dL
same,RALB,"[…], time 28 day",3.7 g/dL
same,TBIL,"[…], time 28 day",0.1 mg/dL
same,TC,"[…], time 28 day",116.4 mg/dL
same,TG,"[…], time 28 day",62.4 mg/dL
same,TP,"[…], time 28 day",6.5 g/dL
same,gamma-GTP,"[…], time 28 day",2.6 IU/L
